In brackets after ≈: the same amount, converted by molar mass. Read-outs that look alike come from different tables or passages of the source. One block for each molecule: values may come before it.
How the values were obtained:
S. aureus ATCC 29213 [1] = test: MICs of control antibiotics for macromolecular biosynthesis assays; type: cell-based; details: Staphylococcus aureus, ATCC29213; ATCC 29213; data not shown; read-out: MIC
S. aureus ATCC 29213 [2] = test: MIC, microdilution in CAMHB 24 h, with or without tomatidine/compound; type: cell-based, Staphylococcus aureus; details: ATCC 29213; for Fold (−TO/+TO): tomatidine at 8 μg/ml
S. aureus 8325-4 = test: MIC, microdilution in CAMHB 24 h; type: cell-based, Staphylococcus aureus; details: 8325-4, Laboratory strain
S. aureus Newbould = test: MIC, microdilution in CAMHB 24 h; type: cell-based, Staphylococcus aureus; details: Newbould, Cow (mastitis)
S. aureus SHY97-3906 = test: MIC, microdilution in CAMHB 24 h; type: cell-based, Staphylococcus aureus; details: SHY97-3906, Cow (mastitis)
S. aureus ATCC 43300 = test: MIC, microdilution in CAMHB 24 h; type: cell-based, Staphylococcus aureus; details: ATCC 43300, Human (HA), MRSA
S. aureus ATCC BAA-41 = test: MIC, microdilution in CAMHB 24 h; type: cell-based, Staphylococcus aureus; details: ATCC BAA-41, Human (HA), MRSA
S. aureus N315 = test: microbe, parasite or virus in culture; type: cell-based, Staphylococcus aureus; details: MRSA
S. aureus MA078038 = test: MIC, microdilution in CAMHB 24 h; type: cell-based, Staphylococcus aureus; details: MA078038, Human (CA), MRSA
S. aureus Newman = test: MIC, microdilution in CAMHB 24 h; type: cell-based, Staphylococcus aureus; details: Newman, Human (Osteo)
S. aureus MRSA COL = test: MIC, microdilution in CAMHB 24 h; type: cell-based, Staphylococcus aureus; details: MRSA COL, Human (SSTI)
S. aureus Mu50 = test: MIC, microdilution in CAMHB 24 h; type: cell-based, Staphylococcus aureus; details: Mu50, Human (SSTI), MRSA, VISA
S. aureus Sa220c = test: MIC, microdilution in CAMHB 24 h; type: cell-based, Staphylococcus aureus; details: Sa220c, Human (SSTI), MRSA
S. aureus Sa228c = test: MIC, microdilution in CAMHB 24 h; type: cell-based, Staphylococcus aureus; details: MRSA
S. aureus CF1A-L = test: MIC, microdilution in CAMHB 24 h; type: cell-based, Staphylococcus aureus; details: CF1A-L, Human (CF lungs)
S. aureus CF2A-L = test: MIC, microdilution in CAMHB 24 h; type: cell-based; details: CF2A-L, Human (CF lungs)
S. aureus CF4B-L = test: MIC, microdilution in CAMHB 24 h; type: cell-based, Staphylococcus aureus; details: CF4B-L, Human (CF lungs)
S. aureus CF6B-L = test: MIC, microdilution in CAMHB 24 h; type: cell-based, Staphylococcus aureus; details: CF6B-L, Human (CF lungs)
S. aureus CF7A-L = test: MIC, microdilution in CAMHB 24 h; type: cell-based, Staphylococcus aureus; details: CF7A-L, Human (CF lungs), MRSA
S. aureus CF8E-L = test: MIC, microdilution in CAMHB 24 h; type: cell-based, Staphylococcus aureus; details: CF8E-L, Human (CF lungs)
S. aureus CF9A-L = test: MIC, microdilution in CAMHB 24 h; type: cell-based, Staphylococcus aureus; details: CF9A-L, Human (CF lungs), MRSA
S. aureus CF35A-L = test: MIC, microdilution in CAMHB 24 h; type: cell-based, Staphylococcus aureus; details: CF35A-L, Human (CF lungs), MRSA
S. aureus CF07-L = test: MIC, microdilution in CAMHB 24 h; type: cell-based, Staphylococcus aureus; details: CF07-L, Human (CF lungs)
S. aureus ATCC 29213 [3] = test: MIC, microdilution in BHI 48 h (Examples 1, 3); type: cell-based, Staphylococcus aureus
[4] = test system: S. aureus Newbould (normal strain); test: MIC, microdilution in BHI 48 h; type: cell-based, Staphylococcus aureus; details: Staphylococcus aureus; Newbould, normal strain; read-out: MIC
[5] = test system: S. aureus SCV NewbouldΔhemB; test: MIC, microdilution in BHI 48 h; type: cell-based, Staphylococcus aureus
[6] = test system: S. aureus CF07-L (normal strain); test: MIC, microdilution in BHI 48 h (Examples 1, 3); type: cell-based, Staphylococcus aureus
S. aureus SCV CF07-S = test: MIC, microdilution in BHI 48 h (Examples 1, 3); type: cell-based, Staphylococcus aureus
[7] = test system: S. aureus CF1A-L (normal strain); test: MIC, microdilution in BHI 48 h; type: cell-based, Staphylococcus aureus; details: Staphylococcus aureus; CF1A-L, normal strain; read-out: MIC
S. aureus SCV CF1D-S = test: MIC, microdilution in BHI 48 h; type: cell-based, Staphylococcus aureus; details: Staphylococcus aureus, SCVCF1DS
[8] = Staphylococcus aureus, read-out: MIC

MIC (S. aureus ATCC 29213 [1]): 0.008 to 0.015 µg/mL (≈ 0.00972 to 0.0182 µM)
Structure (SMILES): CO[C@H]1/C=C/O[C@@]2(C)Oc3c(C)c(O)c4c(O)c(c(/C=N/N5CCN(C)CC5)c(O)c4c3C2=O)NC(=O)/C(C)=C\C=C\[C@H](C)[C@H](O)[C@@H](C)[C@@H](O)[C@@H](C)[C@H](OC(C)=O)[C@@H]1C [rifampicin]

Structure (SMILES): CN(C)[C@@H]1C(=O)C(C(N)=O)=C(O)[C@@]2(O)C(=O)C3=C(O)c4c(O)cccc4[C@@](C)(O)[C@H]3C[C@@H]12 [Tetracycline, tetracycline]
MIC (S. aureus ATCC 29213 [2]; Human (SSTI)): 0.25 to 0.5 µg/mL
MIC −TO (S. aureus ATCC 29213 [2]; absence of tomatidine): 0.25 to 0.5 µg/mL
MIC +TO (S. aureus ATCC 29213 [2]; presence of tomatidine at 8 μg/ml): 0.25 to 0.5 µg/mL
Fold (−TO/+TO) (S. aureus ATCC 29213 [2]): 1 fold
MIC (S. aureus 8325-4): 0.25 µg/mL (≈ 0.563 µM)
MIC (S. aureus Newbould): 0.25 to 0.5 µg/mL
MIC (S. aureus SHY97-3906): 0.25 to 0.5 µg/mL
MIC (S. aureus ATCC 43300): 0.5 µg/mL (≈ 1.13 µM)
MIC (S. aureus ATCC BAA-41): 0.5 µg/mL (≈ 1.13 µM)
MIC (S. aureus N315; N315, Human (HA)): 0.5 µg/mL (≈ 1.13 µM)
MIC (S. aureus MA078038): 0.5 µg/mL (≈ 1.13 µM)
MIC (S. aureus Newman): 0.25 to 0.5 µg/mL
MIC (S. aureus MRSA COL): 1 to 2 µg/mL
MIC (S. aureus Mu50): >16 (R) μg/ml
MIC (S. aureus Sa220c): 0.5 µg/mL (≈ 1.13 µM)
MIC (S. aureus Sa228c; Sa228c, Human (SSTI)): >16 (R) μg/ml
MIC (S. aureus CF1A-L): 0.25 µg/mL (≈ 0.563 µM)
MIC (S. aureus CF2A-L): 2 µg/mL (≈ 4.5 µM)
MIC (S. aureus CF4B-L): 0.25 µg/mL (≈ 0.563 µM)
MIC (S. aureus CF6B-L): 0.25 µg/mL (≈ 0.563 µM)
MIC (S. aureus CF7A-L): 0.25 to 0.5 µg/mL
MIC (S. aureus CF8E-L): 0.25 to 0.5 µg/mL
MIC (S. aureus CF9A-L): 0.25 to 0.5 µg/mL
MIC (S. aureus CF35A-L): 0.5 µg/mL (≈ 1.13 µM)
MIC (S. aureus CF07-L): 0.5 µg/mL (≈ 1.13 µM)

Structure (SMILES): CC[C@H]1OC(=O)[C@H](C)[C@@H](O[C@H]2C[C@@](C)(OC)[C@@H](O)[C@H](C)O2)[C@H](C)[C@@H](O[C@@H]2O[C@H](C)C[C@H](N(C)C)[C@H]2O)[C@](C)(O)C[C@@H](C)C(=O)[C@H](C)[C@@H](O)[C@]1(C)O [Erythromycin, erythromycin]
MIC (S. aureus ATCC 29213 [3]; ATCC 29213 + HQNO at 20 μg/ml): 0.25 µg/mL
MIC (S. aureus ATCC 29213 [3]; Staphylococcus aureus, ATCC29213, ATCC 29213, without HQNO, read-out: MIC): 0.12 to 0.25 µg/mL (≈ 0.164 to 0.341 µM)
MIC (S. aureus ATCC 29213 [3]; Staphylococcus aureus, ATCC29213, ATCC 29213 in BHI, read-out: MIC): 0.12 to 0.25 µg/mL (≈ 0.164 to 0.341 µM)
MIC (S. aureus ATCC 29213 [3]; Staphylococcus aureus, ATCC29213, ATCC 29213 in MHBCA, read-out: MIC): 0.12 to 0.5 µg/mL (≈ 0.164 to 0.681 µM)
MIC [4]: 0.25 µg/mL (≈ 0.341 µM)
MIC ([5]; NewbouldΔhemB, SCV, listed as ERY): >16 µg/mL
MIC ([5]; Staphylococcus aureus): > 16 µg/mL
MIC ([6]; CF07-L + HQNO at 20 μg/ml): 0.25 µg/mL
MIC ([6]; CF07-L, without HQNO): 0.25 µg/mL (≈ 0.341 µM)
MIC ([6]; Staphylococcus aureus, CF07-L, normal strain, read-out: MIC): 0.25 µg/mL (≈ 0.341 µM)
MIC (S. aureus SCV CF07-S; CF07-S + HQNO at 20 μg/ml): 0.06 to 0.12 µg/mL
MIC (S. aureus SCV CF07-S; CF07-S, without HQNO): 0.12 µg/mL (≈ 0.164 µM)
MIC (S. aureus SCV CF07-S; Staphylococcus aureus, SCVCF07S): 0.12 µg/mL (≈ 0.164 µM)
MIC [7]: 0.25 µg/mL (≈ 0.341 µM)
MIC (S. aureus SCV CF1D-S): 0.12 µg/mL (≈ 0.164 µM)
Fold (−TO/+TO) (S. aureus ATCC 29213 [2]): 1 fold
MIC (S. aureus ATCC 29213 [2]; Staphylococcus aureus, ATCC29213, Human (SSTI), read-out: MIC): 0.5 µg/mL (≈ 0.681 µM)
MIC (S. aureus ATCC 29213 [2]; Staphylococcus aureus, ATCC29213, absence of tomatidine, read-out: MIC −TO): 0.5 µg/mL (≈ 0.681 µM)
MIC (S. aureus ATCC 29213 [2]; Staphylococcus aureus, ATCC29213, presence of tomatidine at 8 μg/ml, read-out: MIC +TO): 0.5 µg/mL
MIC (S. aureus 8325-4; Staphylococcus aureus, 83254, read-out: MIC): 0.25 to 0.5 µg/mL (≈ 0.341 to 0.681 µM)
MIC (S. aureus Newbould; [8]): 0.5 µg/mL (≈ 0.681 µM)
MIC (S. aureus SHY97-3906; Staphylococcus aureus, SHY973906, read-out: MIC): 0.12 to 0.25 µg/mL (≈ 0.164 to 0.341 µM)
MIC (S. aureus ATCC 43300; Staphylococcus aureus, ATCC 43300 / MRSA, read-out: MIC): > 64 µg/mL
MIC (S. aureus ATCC BAA-41; Staphylococcus aureus, ATCC BAA-41 / MRSA, read-out: MIC): > 64 µg/mL
MIC (S. aureus N315; Staphylococcus aureus): > 64 µg/mL
MIC (S. aureus MA078038; [8]): 64 µg/mL (≈ 87.2 µM)
MIC (S. aureus Newman; [8]): 0.5 µg/mL (≈ 0.681 µM)
MIC (S. aureus MRSA COL; [8]): 0.5 µg/mL (≈ 0.681 µM)
MIC (S. aureus Mu50; [8]): > 64 µg/mL
MIC (S. aureus Sa220c; [8]): 0.5 to 1 µg/mL (≈ 0.681 to 1.36 µM)
MIC (S. aureus Sa228c; Staphylococcus aureus): > 64 µg/mL
MIC (S. aureus CF1A-L; Staphylococcus aureus, CF1AL, read-out: MIC): 0.25 to 0.5 µg/mL (≈ 0.341 to 0.681 µM)
MIC (S. aureus CF2A-L; Staphylococcus aureus, CF2AL, read-out: MIC): 0.5 µg/mL (≈ 0.681 µM)
MIC (S. aureus CF4B-L; Staphylococcus aureus, CF4BL, read-out: MIC): 0.5 µg/mL (≈ 0.681 µM)
MIC (S. aureus CF6B-L; Staphylococcus aureus, CF6BL, read-out: MIC): 0.5 to 2 µg/mL (≈ 0.681 to 2.73 µM)
MIC (S. aureus CF7A-L; [8]): > 64 µg/mL
MIC (S. aureus CF8E-L; Staphylococcus aureus, CF8EL, read-out: MIC): 0.5 µg/mL (≈ 0.681 µM)
MIC (S. aureus CF9A-L; [8]): > 64 µg/mL
MIC (S. aureus CF35A-L; [8]): > 64 µg/mL
MIC (S. aureus CF07-L; Staphylococcus aureus, CF07L, read-out: MIC): 0.5 µg/mL (≈ 0.681 µM)
